Laboratory results taken from the NIST ThermoML archive (doi:10.1016/j.jct.2015.12.023).

Assay: mn = molality of the nth substance listed, in mol/kg
Conditions: 100 kPa, Liquid; for speed of sound: Frequency=3 MHz, Sing-around technique in a fixed-path interferometer; for mass density: Vibrating tube method

CCCC[N+](CCCC)(CCCC)CCCC.[I-] [tetrabutylammonium iodide] + O
Conditions | mass density, 288.15 K [kg/m3] | mass density, 293.15 K [kg/m3] | mass density, 298.15 K [kg/m3] | mass density, 303.15 K [kg/m3] | mass density, 308.15 K [kg/m3] | speed of sound, 288.15 K [m/s] | speed of sound, 293.15 K [m/s] | speed of sound, 298.15 K [m/s] | speed of sound, 303.15 K [m/s] | speed of sound, 308.15 K [m/s]
m1 = 0.01 | 1001.07 | 1000.16 | 998.97 | 997.53 | 995.95 | 1468.9 | 1484.9 | 1498.9 | 1511.1 | 1521.2
m1 = 0.02 | 1001.64 | 1000.72 | 999.53 | 998.07 | 996.49 | 1471.3 | 1487.1 | 1500.9 | 1512.9 | 1522.9
m1 = 0.03 | 1002.22 | 1001.29 | 1000.09 | 998.61 | 997.02 | 1473.6 | 1489.1 | 1502.8 | 1514.5 | 1524.4
m1 = 0.04 | 1002.83 | 1001.88 | 1000.67 | 999.19 | 997.58 | 1475.8 | 1491.3 | 1504.7 | 1516.3 | 1526
